Source: US10052323B2, “Pharmaceutical compositions of 7-(6-(2-hydroxypropan-2-yl)pyridin-3-yl)-1-(trans)-4-methoxycyclohexyl)-3,4-dihydropyrazino [2,3-b]pyrazin-2(1H)-one, a solid form thereof and methods of their use” (Signal Pharmaceuticals, LLC, priority 2013, dated 2018)
Like-named read-outs stand apart in the source and are kept apart here.

Columns and labels:
[1] = Hygroscopicity by moisture adsorption/desorption (DVS); format: physicochemical
Protocol: Sorption isotherms were obtained using a SMS DVS Intrinsic moisture sorption analyser, controlled by DVS Intrinsic Control software v1.0.0.30. The sample temperature was maintained at 25° C. by the instrument controls. The humidity was controlled by mixing streams of dry and wet nitrogen, with a total flow rate of 200 mL/min. The relative humidity was measured by a calibrated Rotronic probe (dynamic range of 1.0-100% RH), located near the sample. The weight change, (mass relaxation) of the sample as a function of % RH was constantly monitored by the microbalance (accuracy±0.005 mg). Typically 5-20 mg of sample was placed in a tared mesh stainless steel basket under ambient conditions. The sample was loaded and unloaded at 40% RH and 25° C. (typical room conditions). The standard isotherm was performed at 25° C. at 10% RH intervals over a 0-90% RH range. Data analysis was undertaken in Microsoft Excel using DVS Analysis Suite v6.0.0.7.
Hygroscopicity of Form A was determined by moisture adsorption and desorption.

[2] = Susceptibility of Compound A to hydrolysis; format: physicochemical
[3] = Phase 1 food effect study (Part 2), single 20-mg oral dose of Compound A tablet, fed vs fasted; format: in vivo, human
Protocol: The primary objectives of this study are: to characterize the biotransformation and excretion of Compound A following a single 20 mg oral dose of Compound A capsule containing a microtracer of [^14C]-Compound A solution in healthy male subjects (Part 1) and to evaluate the effect of a high-fat meal on the pharmacokinetics (PK) of Compound A following a single oral 20-mg dose of Compound A tablet (Part 2).
Part 2 design: Part 2 will be a 2-period crossover study; in Period 1, subjects (n=12) will be randomized to receive either an oral 20 mg dose of Compound A tablet (Treatment B) under fed (n=6) or fasted (n=6) conditions. In Period 2, subjects will receive Treatment B under converse conditions based on treatment assignment in Period 1. After screening, subjects (n=12) eligible for participation in the study will return to the study center on Day −1 for baseline assessments. Subjects who continue to be qualified for participation in the study will be randomized and enrolled in the study on the morning of Day 1. Subjects (n=6) will be enrolled and randomized to receive Treatment B under fed or fasted conditions on the morning of Day 1 after fasting for at least 8 hours. Fed subjects will be served a standard high fat meal breakfast, or its equivalent, that must be consumed within 30 minutes from serving. Dosing must occur 30 minutes (±5 minutes) after serving a subject breakfast. All subjects (fed and fasted) will fast (not to consume any food) until 4 hours post dose. Water will be allowed during the fasting period. Subjects will be domiciled at the study center from Day −1 until the morning of Day 5 of each period. Subjects will be discharged from the study center on the morning of Day 5 upon satisfactory safety review and completion of study-related procedures. Safety and tolerability data will be monitored and collected following each dosing period. Periods 1 and 2 will be separated by a washout period of at least 7 days (no more than 10 days) from prior dose to the next dose. In certain instances, a longer washout may be acceptable if previously agreed to.
Serial blood samples (10 mL) will be collected at predose (0 hour) and at 0.5, 1, 2, 3, 6, 12, 24, 48, 72 and 96 hours post dose for the determination of plasma concentrations of Compound A and the O-desmethyl metabolite of Compound A. Safety will be monitored throughout the study; safety evaluations will include AE reporting, physical examinations, vital sign measurements, ECG, and clinical laboratory safety tests. Concomitant medications will be assessed and recorded throughout the study as well. In addition, during the subjects' stay-in-the clinic (i.e., confinement period), fasting plasma glucose levels will be monitored as part of the clinical laboratory safety tests. For Parts 1 and 2, all subjects will return to the clinic within 7 to 10 days after the last dose for follow up safety assessments. In the event that a subject discontinues prematurely from the study, every reasonable effort should be made (and documented) to ensure that all procedures and evaluations scheduled for the follow-up visit are performed at the time of discontinuation or a follow-up visit should be scheduled within 7 to 10 days from the discontinuation day.
Part 2 dosing: In Part 2, subjects will fast overnight for at least 8 hours prior to Compound A administration. On the morning of Day 1, each subject will receive a 20-mg tablet of Compound A orally. Subjects randomized to receive Compound A under fed conditions will be a served a standard high fat meal (breakfast).
The standard high fat meal or its equivalent must be consumed within 30 minutes of serving. Dosing must occur 30 minutes (±5 minutes) after serving the meal. The tablet will be administered with approximately 240 mL of non-carbonated, room temperature water. After dosing, subjects will continue to fast until 4 hours after dosing.

[4] = Phase 1 crossover pharmacokinetics after a single oral 20 mg dose of tablet and capsule formulations; format: in vivo, human
Protocol: Certain formulations provided herein were evaluated in a Phase 1, open-label, randomized, crossover study.
On Day 1 of Period 1, following an overnight fast of at least 8 hours, subjects were randomized to one of the following 3 sequences to receive Treatment A, B or C (Table 35).
In Treatment A, one 20-mg reference Compound A API-in-capsule was administered orally after at least 8 hour fast with 240 mL of non-carbonated, room temperature water. In Treatment B, one 20-mg tablet of Compound A (Tablet Formulation XIII) was administered under fasted conditions. In Treatment C, four 5-mg tablets of Compound A (Tablet Formulation XIV) were administered under fasted conditions. The 20-mg tablet and four 5-mg tablets were administered orally after at least 8 hour fast with 240 mL of non-carbonated, room temperature water.
For each period, serial blood samples were collected before dosing (zero hour) and at 0.5, 1, 1.5, 2, 2.5, 3, 4, 6, 8, 12, 24, 48, 72, and 96 hours after dosing. Plasma concentrations of Compound A were determined for determining PK parameters, such as AUC0-t, AUC0-∞, Cmax, Tmax, t1/2, CL/F, and Vz/F for Compound A. Plasma PK parameters were calculated using non compartmental methods. Analyses of variance (ANOVA) were performed on the natural log-transformed AUC0-t, AUC0-∞, and Cmax for Compound A. The geometric mean ratios (test/reference) and their 90% confidence intervals were also calculated. For Tmax, non parametric analysis was used to produce median differences.

[5] = Pharmacokinetics of metabolite after 7.5-60 mg Compound A (protocol of U.S. provisional 61/653,436); format: in vivo, human; settings: for concentration at 15 day: human, in vivo, read-out: Ctrough
Protocol: In certain embodiments, the pharmacokinetic parameters in connection with the metabolite of Compound A produced via administration of 7.5 mg, 15 mg, 30 mg, 45 mg and 60 mg of Compound A are obtained using the protocol set forth in Section 5.2.1 (paragraphs [00497]-[00520]) of U.S. provisional application No. 61/653,436, filed May 31, 2012, which is incorporated by reference herein in its entirety.
In certain embodiments, the pharmacokinetic parameters set forth herein are mean values obtained from multiple subjects.

[6] = fed vs fasted, 20 mg Compound A tablet, healthy adult males
[7] = plasma, single 20-mg oral dose of Compound A tablet, Fasted (n = 11)
[8] = plasma, single 20-mg oral dose of Compound A tablet, Fed, high fat meal (n = 11)
[9] = day 1 of administration of about 45 mg of Compound A
[10] = day 1 of administration of about 60 mg of Compound A
[11] = upon administration of about 45 mg of Compound A

## CO[C@H]1CC[C@H](N2C(=O)CNc3ncc(-c4ccc(C(C)(C)O)nc4)nc32)CC1 [Form A, 7-(6-(2-hydroxypropan-2-yl)pyridin-3-yl)-1-((trans)-4-methoxycyclohexyl)-3,4-dihydropyrazino[2,3-b]pyrazin-2(1H)-one]
[1]; DVS cycle, 25° C.
  XRPD diffractogram after full adsorption/desorption cycle: unchanged from the initial Form A
[1]; DVS moisture sorption/desorption
  hygroscopicity: not hygroscopic
[1]; DVS, 25° C., between 0 and 80% relative humidity
  water uptake: < 0.1 % w/w

## CO[C@H]1CC[C@H](N2C(=O)CNc3ncc(-c4ccc(C(C)(C)O)nc4)nc32)CC1 [Compound A, 7-(6-(2-hydroxypropan-2-yl)pyridin-3-yl)-1-((trans)-4-methoxycyclohexyl)-3,4-dihydropyrazino[2,3-b]pyrazin-2(1H)-one]
[2]
  susceptibility to hydrolysis: susceptible to hydrolysis
[3]; [6]
  decrease in Cmax with a high fat meal: ~17%
  delay in Tmax with a high fat meal: 2 h
  increase in overall exposure (AUCinf) with a high fat meal: ~20%
[3]; [7]
  CL/F (L/h), geometric mean (CV %): 19.9 (38) L/h
[3]; [8]
  CL/F (L/h), geometric mean (CV %): 16.7 (38) L/h
[4]; plasma, single 20 mg oral dose of Compound A, fasted healthy adult males, Treatment A = API-in-capsule, B = one 20-mg tablet, C = four 5-mg tablets (analyte Compound A)
  CL/F (L/h), geometric mean (geometric CV %): 20.3 (23) L/h
[4]; single dose 20 mg, healthy adult male subjects
  pharmacokinetics of tablet formulations versus API in capsule: comparable

## CC(C)(O)c1ccc(-c2cnc3c(n2)N([C@H]2CC[C@H](O)CC2)C(=O)CN3)cn1 [O-Desmethyl metabolite, 1-((trans)-4-hydroxycyclohexyl)-7-(6-(2-hydroxypropan-2-yl)pyridin-3-yl)-3,4-dihydropyrazino[2,3-b]pyrazin-2(1H)-one]
[5]; day 1 of administration of about 30 mg of Compound A
  tin: 21 h
[5]; [9]
  Tax: 3 h
  tin: 17 h
[5]; [10]
  Tax: 5 h
  tin: 16 h
[5]; day 15 of once a day administration of about 30 mg of Compound A
  Tax: 2 h
[5]; day 15 of once a day administration of about 45 mg of Compound A
  Tax: 2 h
[5]; day 15 of once a day administration of about 60 mg of Compound A
  Tax: 3 h
[5]; day 15 of once a day administration of about 7.5 mg of Compound A
  concentration at 15 day: 267 ng/mL
[5]; day 15 of once a day administration of about 15 mg of Compound A
  concentration at 15 day: 145 ng/mL
[5]; [11]
  Tax: 3 h
  t1/2: 14.7 h
[3]; [6]
  decrease in Cmax with a high fat meal: ~17%
  increase in overall exposure (AUCinf) with a high fat meal: ~3%
[3]; [7]
  CL/F (L/h), geometric mean (CV %): 2.0 (38) L/h
[3]; [8]
  CL/F (L/h), geometric mean (CV %): 2.0 (36) L/h
  t1/2 (h), geometric mean (CV %): 14.9 (29) h
[4]; metabolite, upon administration of about 20 mg of Compound A (protocol of Section 6.5.1)
  Tax: 3 h
